We go through nine compounds from publication PMC6257776, “Synthesis and Antitumor Activity of Diterpenylhydroquinone Derivatives of Natural Ent-Labdanes” (Molecules, 2010).

The subject of data set [1] is DU-145 human prostate cancer cells. The experiment in a line: SRB cell growth inhibition assay, DU-145. Particulars: DU-145 cells, 72 h exposure, read-out: Cytotoxicity IC50, DU-145. In kind it is cell-based. The method, then: (§1) The antitumor cytotoxicity of the compounds was evaluated in vitro against […] different cancer cell lines: PC-3 and DU-145 human prostate cancer, MCF-7 and MDA-MB-231 breast carcinoma and one non-tumoral cell line, dermal human fibroblasts (DHF). A conventional colorimetric assay was set up to estimate the IC50 values, which represent the concentration of a drug that is required for 50% inhibition in vitro after 72 h of continuous exposure to the test compounds. Four serial dilutions (from 12.5 to 100 µM) for each sample were evaluated in triplicate. The results obtained from these assays are shown in Table 1 and the following general observations can be made as a result: the natural ent-labdanes derivatives 3-5 (IC50 > 100) were the least cytotoxic of the series.
(§2) The colorimetric assay using sulforhodamine B (SRB) was realized following an adaptation of the described method by Skehan et al.. Cells were seeded in 96-well microtiter plates, at5 × 10^3 cells per well in aliquots of 100 µL of DMEM/F-12 medium, and they were allowed to attach to the plate surface by growing in drug-free medium for 18 h. Afterward, compounds samples were added in aliquots (dissolved in EtOH/H2O) to achieve a final concentration of 100, 50, 25 12.5 µM. After 72 h exposure, the in vitro cytotoxicity was measured by the SRB dye assay. Cells were fixed by adding cold 50% (wt/vol) trichloroacetic acid (TCA, 25 µL) and incubating for 60 min at 4 °C. Plates were washed with deionized water and dried; SRB solution (0.1% wt/vol in 1% acetic acid, 50 µL) was added to each microtiter well and incubated for 30 min at room temperature. Unbound SRB is removed by washing with 1% acetic acid. Plates were air-dried and bound stain was solubilized with Tris base (100 µL, 10 mM). Optical densities were read on an automated spectrophotometer plate reader at a single wavelength of 540 nm. Values shown are the % viability vs. ctrl + SD, n = four independent experiments in triplicate.

In data set [2] the test system is MCF-7 breast carcinoma cells. The experiment in a line: SRB cell growth inhibition assay, MCF-7. It counts as cell-based, human. Particulars: for IC50: Homo sapiens, MCF7, MCF-7 cells, 72 h exposure, SRB, read-out: Cytotoxicity IC50, MCF-7; for cytotoxic bioactivity against MCF-7 (in words): MCF-7 breast carcinoma. The method, then:
as §1, §2

Data set [3] concerns MDA-MB-231 breast carcinoma cells. The experiment in a line: SRB cell growth inhibition assay, MDA-MB-231. Particulars: for IC50: Homo sapiens, MDA-MB-231 cells, 72 h exposure, SRB, read-out: Cytotoxicity IC50, MDA-MB-231; for cytotoxic bioactivity against MDA-MB-231 (in words): MDA-MB-231 breast carcinoma. It counts as cell-based, human. The method, then: as §1, §2
Data set [4] relates to PC-3 human prostate cancer cells. The experiment in a line: SRB cell growth inhibition assay, PC-3. In kind it is cell-based. Particulars: PC-3 cells, 72 h exposure, read-out: Cytotoxicity IC50, PC-3. The method, then:
as §1, §2

Data set [5] in a line: SRB cell growth inhibition assay, DHF (non-tumoral). It counts as cell-based. The following applies: dermal human fibroblasts (DHF), non-tumoral cells, 72 h exposure, read-out: Cytotoxicity IC50, DHF. The method, then:
as §1, §2

In the case of `C=C1CC[C@@H]2C(C)(C)C[C@@H](OC(C)=O)C[C@@]2(C)[C@@H]1CC/C(C)=C/CO` [Compound 3], the IC50 in data set [1], in data set [2], in data set [3] and in data set [4] was more than 100 µM in each case. Besides, the IC50 at 72 h in data set [5] is more than 100 µM.

Regarding `C=C1CC[C@@H]2C(C)(C)C[C@@H](O)C[C@@]2(C)[C@@H]1CC/C(C)=C/CO` [Compound 4], the IC50 is more than 100 µM in data set [1], 90.6 µM in data set [2], more than 100 µM in data set [3] and more than 100 µM in data set [4]. The IC50 at 72 h in data set [5] was more than 100 µM.

Regarding `C=C1CC[C@@H]2C(C)(C)C[C@@H](OC(C)=O)C[C@@]2(C)[C@@H]1CC/C(C)=C\CO` [Compound 5], the IC50 in data set [1], in data set [2], in data set [3] and in data set [4] was more than 100 µM in each case. Also, the IC50 at 72 h in data set [5] is more than 100 µM.

For the compound `C=C1CC[C@@H]2C(C)(C)C[C@@H](O)C[C@@]2(C)[C@@H]1CC/C(C)=C\CO` [Compound 6], the IC50 is 96.2 µM in data set [1], 74.9 µM in data set [2], 96 µM in data set [3] and more than 100 µM in data set [4]. Further, the IC50 at 72 h in data set [5] was more than 100 µM.

As for `C=C1CC[C@@H]2C(C)(C)C[C@@H](OC(C)=O)C[C@@]2(C)[C@@H]1CC/C(C)=C/Cc1cc(O)ccc1O` [Compound 7], the IC50 came to 44.6 µM in data set [1], 23.9 µM in data set [2], 75.9 µM in data set [3] and 21.4 µM in data set [4]. In addition, the IC50 at 72 h in data set [5] was more than 100 µM.

Take `C=C1CC[C@@H]2C(C)(C)C[C@@H](O)C[C@@]2(C)[C@@H]1CC/C(C)=C/Cc1cc(O)ccc1O` [Compound 8]: the IC50 was 37.6 µM in data set [1], 34 µM in data set [2], 61.8 µM in data set [3] and 28.2 µM in data set [4]. In addition, the IC50 at 72 h in data set [5] is more than 100 µM.

Take `C=C1CC[C@@H]2C(C)(C)C[C@@H](OC(C)=O)C[C@@]2(C)[C@@H]1CC/C(C)=C/Cc1cc(OC(C)=O)ccc1OC(C)=O` [Compound 9, 2β-Acetoxy-15-phenyl-(22,25-acetoxy)-ent-labda-8(17),13(E)-diene]: the IC50 in data set [1] worked out at 62.9 µM; in data set [2] it was 41.1 µM; in data set [3], 33.8 µM; in data set [4] it was 64.3 µM. In data set [2], the “cytotoxic bioactivity against MCF-7 (in words)” value is recorded as “showed cytotoxic bioactivity”. Moreover, in data set [3], the “cytotoxic bioactivity against MDA-MB-231 (in words)” value is given as “showed cytotoxic bioactivity”. Further, the IC50 at 72 h in data set [5] worked out at 72.3 µM.

On to `C=C1CCC2C(C)(C)CC(O)CC2(C)C1CCC(C)=CCc1c(OC)cc(OC)cc1OC` (stereo not drawn) [Compound 10, 2β-Hydroxy-15-phenyl-(22,24,26-trimethoxy)-ent-labda-8(17),13(E)-diene], for which the IC50 in data set [1] is more than 100 µM; in data set [2], 45.6 µM; in data set [3], 85.9 µM; in data set [4], 91.2 µM. For the same compound, the “cytotoxic bioactivity against MCF-7 (in words)” value in data set [2] is “showed cytotoxic bioactivity”. In addition, in data set [3], the “cytotoxic bioactivity against MDA-MB-231 (in words)” value is “showed cytotoxic bioactivity”. Further, the IC50 at 72 h in data set [5] was more than 100 µM.

As for `C=C1CC[C@@H]2C(C)(C)C[C@@H](O)C[C@@]2(C)[C@@H]1CC/C(C)=C/COC(C)=O` [Compound 11, 2β-Hydroxy-15-acetoxy-ent-labda-8(17),13(E)-diene], the IC50 was more than 100 µM in data set [1], 86.9 µM in data set [2], more than 100 µM in data set [3] and 35.6 µM in data set [4]. Also, the IC50 at 72 h in data set [5] was more than 100 µM.
